Laboratory results from patent US10213422B2, “Compositions and methods of inhibiting histone deacetylases” (YALE UNIVERSITY, priority 2014, dated 2019).

Key:
[1] = system: rats with experimental pulmonary hypertension; assay: Experimental pulmonary hypertension models in rats (MCT and SU-5416/hypoxia): hemodynamic, morphometric and cardiac analyses; assay type: in vivo, rat; conditions: for right ventricular hypertrophy (right ventricle to left ventricle plus septum weight ratios): SU5416/hypoxia, vs. control; for right ventricular systolic pressures: SU-5416/hypoxia, vs. DMSO
Method: Rat lung tissues were fixed and stained as previously described (Nature medicine 19, 74-82 (2013)). Standard methods (Trichrome Stain, Sigma) were used to stain for collagen in cardiac sections.
(§1) Male Sprague Dawley rats (200-250 g; Charles River Laboratories) were subcutaneously injected with monocrotaline (Sigma) (60 mg per kg body weight) for the MCT model. For the SUGEN model, SU-5416 (Sigma) was resuspended in DMSO (Sigma) and injected subcutaneously (20 mg per kg body weight). Rats were subsequently exposed to hypoxia (10% FiO2) for 2 weeks. Rats were given intraperitoneal administration of either the vehicle (DMSO), MC1568 (Sellek Chemicals and DC Chemicals) (50 mg per kg body weight), TMP269 (DC Chemicals) (intraperitoneal injection of 50 mg/kg/day for two weeks), or Tasquinimod (DC Chemicals) (oral gavage of 10 mg/kg/day for two weeks) daily as indicated (FIG. 13).
Right ventricular systolic pressure (RVSP) measurements were performed at the designated time points under isoflurane by inserting a catheter (Millar Instruments) into the right jugular vein as described previously.^21 Lungs were perfused with normal saline and fixed in 4% paraformaldehyde overnight for immunohistochemistry or snap frozen in liquid nitrogen for protein and RNA analyses. Hearts were dissected and weighed for calculation of the right ventricle to the left ventricle plus septum weight ratio. The same full section in the midportion of the left lung parallel to the hilum was used and embedded in the same manner for lung morphometric analyses. Pulmonary artery muscularization was assessed at ×200 magnification after staining for vWF and SMA by calculating the ratio of the number of muscularized peripheral pulmonary arteries to the number of total peripheral pulmonary arteries (with diameters less than 75 μm) in five random fields per lung (with each field at ×200 magnification). The total number of vessels less than 75 μm was expressed as the number of vessels counted per random microscope field (five random fields per lung at ×200 magnification). Pulmonary arteries with proliferating cells were assessed in PCNA stained lung sections. Vessels with one or more PCNA staining cell were considered to be PNCA positive. All measurements were carried out by investigators blinded to the experimental condition.

HDAC4-GFP = conditions: PAH PAECs, apelin 1 μM for 1 h
Method: (§2) For the apelin effect on HDAC4/5 translocation, PAECs plated on glass bottom culture dish (Mat-Tek) were transfected with GFP-tagged HDAC4 and HDAC5 expression vectors for 24 hours. Cells were imaged using a Nikon Eclipse Ti confocal microscopy before and after treatment with apelin 13 (1 μM for 1 h at 37° C.).

HDAC5-GFP = conditions: PAH PAECs, apelin 1 μM for 1 h
Method: as §2

MEF2 = conditions: PAH PAECs, apelin 1 μM for 24 h
Method: Either control PAECs or PAH PAECs were transfected and lysed in lysis buffer (Promega). Renilla luciferase was used for normalization. Dual Luciferase Reporter System (Promega) was used according to the manufacturer's protocol. All experiments were performed three times in triplicates.

HDAC4 [2] = conditions: PAH PAECs, apelin 1 μM for 1 h
Method: (§3) Western blotting was performed as previously described (eriosclerosis, thrombosis, and vascular biology 31, 814-820 (2011)). Each western blot is representative of three independent experiments done in triplicate. For the generation of cell lysates, lysis buffer (RIPA, Thermo Scientific) containing a protease and phosphatase inhibitor cocktail (Halt Protease and Phosphatase Inhibitor, Thermo Scientific) was used. Protein contents were measured using a detergent-compatible protein concentration assay (DC™ assay, Bio-Rad).

HDAC5 [3] = conditions: PAH PAECs, apelin 1 μM for 1 h
Method: as §3

[4] = pulmonary artery banding, previous study; cited from earlier work
[5] = system: MEF2 transcriptional targets (Cx37, Cx40 and KLF2); assay: MEF2 transcriptional target expression in PH model rats; assay type: in vivo, rat; conditions: PH models, MC1568 50 mg per kg intraperitoneal daily, vs. DMSO
Method: Total RNA was extracted with an RNA isolation kit, (miRNeasy RNA, Qiagen). Purified RNA was reverse transcribed with a cDNA synthesis kit (iScript cDNA Synthesis Kit, Bio-Rad). RT-PCR was performed with TaqMan probes for both genes and miRNAs (Applied Biosystems). All miRNA data were normalized to the internal control small RNAs RNU19 and HY3 for human samples and U87 for rat samples. For the mRNA samples, ribosomal 18S was used as an internal control. Individual RT-PCRs were performed on a CFX96 (Bio-Rad) according to the manufacturer's instructions. […]
Right ventricular systolic pressure (RVSP) measurements were performed at the designated time points under isoflurane by inserting a catheter (Millar Instruments) into the right jugular vein as described previously.^21 Lungs were perfused with normal saline and fixed in 4% paraformaldehyde overnight for immunohistochemistry or snap frozen in liquid nitrogen for protein and RNA analyses. […] Pulmonary artery muscularization was assessed at ×200 magnification after staining for vWF and SMA by calculating the ratio of the number of muscularized peripheral pulmonary arteries to the number of total peripheral pulmonary arteries (with diameters less than 75 μm) in five random fields per lung (with each field at ×200 magnification). […] Pulmonary arteries with proliferating cells were assessed in PCNA stained lung sections. […]

class IIa HDACs = conditions: cited from earlier work
PAH PAECs [6] = assay: PAH PAEC migration assay; assay type: cell-based, human; conditions: 1 μM
Method: PAECs were grown to post-confluence in 24-well plates, and then subjected to injury using a plastic pipette tip. They were then treated with vehicle or MC1568 (1 μM). The cells were allowed to migrate for 8 h, and the gap distance was calculated in at least five randomly selected microscopic fields per each sample.

FGF2 [7] = assay: FGF2 expression in PAH PAECs; assay type: cell-based, human; conditions: 1 μM for 24 h
Method: (§4) PAECs were isolated from normal and PAH explanted donor lungs, as described previously. Additional control PAECs were obtained from Lonza. PAECs from eleven control subjects, seven subjects with IPAH and three subjects with FPAH were studied. In brief, human pulmonary arteries were dissected from the lungs to the distal small arterioles, and PAECs were harvested from the isolated pulmonary arterial tree. PAECs were grown in EBM-2 basal medium supplemented with EGM-2 (Lonza) on fibronectin-coated plates. Cells were passaged at 70-80% confluency, and primary cultures of passages 3 to 7 were used in experiments. All apelin stimulations were done using apelin-13 peptide at 1 μM (Sigma). TSA (Sigma), MC1568 (Selleck Chemicals and DC Chemicals), TMP269 (DC Chemicals), and Tasquinimod (DC Chemicals) were dissolved in DMSO (Sigma) and used at the indicated doses. Total RNA was extracted with an RNA isolation kit, (miRNeasy RNA, Qiagen). Purified RNA was reverse transcribed with a cDNA synthesis kit (iScript cDNA Synthesis Kit, Bio-Rad). RT-PCR was performed with TaqMan probes for both genes and miRNAs (Applied Biosystems). All miRNA data were normalized to the internal control small RNAs RNU19 and HY3 for human samples and U87 for rat samples. For the mRNA samples, ribosomal 18S was used as an internal control. […]

HDAC5 [8] = target: T1, HDAC5 (Homo sapiens, UniProt Q9UQL6); assay: HDAC5 degradation in PAECs from a PAH patient (western blot); assay type: cell-based; conditions: 1 μM for 24 hr
T1 construct: phosphorylation of endogenously expressed HDAC4 and HDAC5; endogenous in cells; host or cells: PAECs from PAH patient(s)

HDAC4 [9] = target: T2, HDAC4 (Homo sapiens, UniProt P56524); assay: HDAC4 degradation in PAECs from a PAH patient (western blot); assay type: cell-based; conditions: 1 μM for 24 hr
T2 construct: phosphorylation of endogenously expressed HDAC4 and HDAC5; endogenous in cells; host or cells: PAECs from PAH patient(s)

PAH PAECs [10] = assay: PAH PAEC proliferation assay; assay type: cell-based, human; conditions: PAH PAECs vs. DMSO
Method: PAECs (5×10^3 cells per well) were plated in a 96-well plate and treated with DMSO or MC1568. Cell proliferation was measured by a colorimetric kit for determining cell viability (CellTiter 96 AQueous One Solution Cell Proliferation Assay, Promega) per manufacturer's protocol.

[11] = system: human coronary artery endothelial cells; assay: Caspase 3 cleavage in human coronary artery endothelial cells; assay type: cell-based
[12] = system: MEF2 transcriptional targets (Cx37, Cx40, KLF2); assay: MEF2 target expression in PAH PAECs (RT-PCR); assay type: cell-based, human; conditions: 1 μM for 24 h, vs. control/DMSO
Method: as §4

FGF2 [13] = assay: FGF2 expression in lungs of PH model rats; assay type: in vivo, rat; conditions: two PH models, lung homogenates, MC1568 50 mg per kg intraperitoneal daily
Method: as §1
Right ventricular systolic pressure (RVSP) measurements were performed at the designated time points under isoflurane by inserting a catheter (Millar Instruments) into the right jugular vein as described previously.^21 Lungs were perfused with normal saline and fixed in 4% paraformaldehyde overnight for immunohistochemistry or snap frozen in liquid nitrogen for protein and RNA analyses. […] The total number of vessels less than 75 μm was expressed as the number of vessels counted per random microscope field (five random fields per lung at ×200 magnification). Pulmonary arteries with proliferating cells were assessed in PCNA stained lung sections. […]

[14] = Tasquinimod oral gavage 10 mg/kg/day for two weeks
[15] = MCT and SUGEN models, MC1568 50 mg per kg intraperitoneal daily, vs. vehicle (DMSO)
[16] = TMP269 intraperitoneal 50 mg/kg/day for two weeks

T1 sequence (Q9UQL6 whole entry): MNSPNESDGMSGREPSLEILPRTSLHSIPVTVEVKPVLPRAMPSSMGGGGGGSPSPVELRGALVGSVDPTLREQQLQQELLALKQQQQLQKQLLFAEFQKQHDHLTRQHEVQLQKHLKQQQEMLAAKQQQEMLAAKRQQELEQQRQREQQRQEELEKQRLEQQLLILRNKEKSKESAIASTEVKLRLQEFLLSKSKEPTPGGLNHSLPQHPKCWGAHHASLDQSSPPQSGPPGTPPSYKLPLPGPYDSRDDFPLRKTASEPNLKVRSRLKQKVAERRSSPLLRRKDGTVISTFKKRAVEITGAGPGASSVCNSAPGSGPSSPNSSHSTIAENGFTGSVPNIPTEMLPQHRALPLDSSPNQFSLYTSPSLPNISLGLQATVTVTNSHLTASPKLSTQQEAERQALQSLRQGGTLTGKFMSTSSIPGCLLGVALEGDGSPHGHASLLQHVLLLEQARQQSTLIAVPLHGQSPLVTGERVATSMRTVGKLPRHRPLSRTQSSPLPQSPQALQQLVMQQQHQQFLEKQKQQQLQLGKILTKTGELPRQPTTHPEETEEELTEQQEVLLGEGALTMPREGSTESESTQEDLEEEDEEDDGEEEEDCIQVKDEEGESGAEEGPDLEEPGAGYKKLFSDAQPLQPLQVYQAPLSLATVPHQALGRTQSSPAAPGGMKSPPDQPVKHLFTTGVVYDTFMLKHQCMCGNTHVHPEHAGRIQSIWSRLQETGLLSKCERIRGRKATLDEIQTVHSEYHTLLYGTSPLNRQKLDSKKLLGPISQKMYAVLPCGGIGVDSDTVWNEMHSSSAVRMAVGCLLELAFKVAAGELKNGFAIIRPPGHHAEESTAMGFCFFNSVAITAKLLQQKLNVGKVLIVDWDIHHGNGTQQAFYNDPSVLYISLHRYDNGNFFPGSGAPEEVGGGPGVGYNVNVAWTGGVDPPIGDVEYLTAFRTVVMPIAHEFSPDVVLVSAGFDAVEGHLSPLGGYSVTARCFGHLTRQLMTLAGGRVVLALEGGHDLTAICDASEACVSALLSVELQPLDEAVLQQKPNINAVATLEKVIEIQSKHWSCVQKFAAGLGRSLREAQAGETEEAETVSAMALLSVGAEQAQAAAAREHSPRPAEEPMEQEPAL
T2 sequence (P56524 whole entry): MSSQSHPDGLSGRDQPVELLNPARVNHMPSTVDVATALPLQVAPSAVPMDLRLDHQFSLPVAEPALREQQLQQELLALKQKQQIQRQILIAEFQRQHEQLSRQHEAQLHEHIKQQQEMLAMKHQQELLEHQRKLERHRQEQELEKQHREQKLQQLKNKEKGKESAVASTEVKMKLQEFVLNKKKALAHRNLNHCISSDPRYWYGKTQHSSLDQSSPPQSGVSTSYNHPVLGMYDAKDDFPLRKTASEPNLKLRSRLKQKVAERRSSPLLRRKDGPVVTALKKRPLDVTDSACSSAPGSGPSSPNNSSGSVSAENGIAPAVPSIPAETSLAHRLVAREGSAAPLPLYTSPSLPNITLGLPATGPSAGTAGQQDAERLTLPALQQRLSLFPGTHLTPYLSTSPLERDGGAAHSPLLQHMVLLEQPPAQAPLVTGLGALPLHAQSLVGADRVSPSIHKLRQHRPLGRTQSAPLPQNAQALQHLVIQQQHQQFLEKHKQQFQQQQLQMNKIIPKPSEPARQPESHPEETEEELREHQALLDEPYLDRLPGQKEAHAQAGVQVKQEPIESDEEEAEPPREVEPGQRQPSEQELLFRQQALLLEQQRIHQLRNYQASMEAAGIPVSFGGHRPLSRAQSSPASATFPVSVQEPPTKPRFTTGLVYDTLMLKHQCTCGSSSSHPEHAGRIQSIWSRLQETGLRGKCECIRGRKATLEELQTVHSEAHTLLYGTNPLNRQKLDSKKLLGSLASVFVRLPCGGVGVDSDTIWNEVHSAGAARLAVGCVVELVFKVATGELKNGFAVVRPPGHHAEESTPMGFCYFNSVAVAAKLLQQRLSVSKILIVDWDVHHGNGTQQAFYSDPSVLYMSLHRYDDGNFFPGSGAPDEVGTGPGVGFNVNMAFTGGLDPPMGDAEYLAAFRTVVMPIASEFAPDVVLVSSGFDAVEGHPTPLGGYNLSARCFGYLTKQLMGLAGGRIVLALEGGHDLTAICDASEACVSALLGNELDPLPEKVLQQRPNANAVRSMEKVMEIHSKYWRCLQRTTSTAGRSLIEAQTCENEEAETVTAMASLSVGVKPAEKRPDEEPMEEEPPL

Question: With `COc1cccc2c1c(O)c(C(=O)N(C)c1ccc(C(F)(F)F)cc1)c(=O)n2C` [Tasquinimod, 4-hydroxy-5-methoxy-N,1-dimethyl-2-oxo-N-[4-(trifluoromethyl)phenyl]-1,2-dihydroquinoline-3-carboxamide] as the compound, how does the “right ventricular hypertrophy (right ventricle to left ventricle plus septum weight ratios)” value [1, 14] read?
Answer: decreased

Question: And the “right ventricular systolic pressures” value [1, 14]?
Answer: significantly reduced

Question: Which results are given for apelin?
Answer: cytoplasmic translocation of HDAC4-GFP (HDAC4-GFP): robust cytoplasmic translocation; cytoplasmic translocation of HDAC5-GFP (HDAC5-GFP): robust cytoplasmic translocation; MEF2 reporter activity (MEF2): significant augmentation; phosphorylation of HDAC4 (HDAC4 [2]): marked increase in phosphorylation; phosphorylation of HDAC5 (HDAC5 [3]): marked increase in phosphorylation

Question: Which “effect on the right ventricle” value [4] does the source give for `CCCC(CCC)C(=O)O` [valproic acid] here?
Answer: detrimental injury to the right ventricle

Question: What does the source list for `Cn1c(/C=C/C(=O)NO)ccc1/C=C/C(=O)c1cccc(F)c1` [MC1568, (E)-3-(5-((E)-3-(3-fluorophenyl)-3-oxoprop-1-en-1-yl)-1-methyl-1H-pyrrol-2-yl)-N-hydroxyacrylamide]?
Answer: MEF2 transcriptional targets (Cx37, Cx40 and KLF2) expression [5]: increased; selectivity for class IIa HDACs over other HDAC classes (class IIa HDACs): selective inhibition of class IIa HDACs, without affecting other HDAC classes; PAH PAEC migration (PAH PAECs [6]): significant reduction; expression of FGF2 (FGF2 [7]): significant downregulation; degradation of HDAC5 (HDAC5 [8]): degradation; degradation of HDAC4 (HDAC4 [9]): degradation; PAH PAEC proliferation (PAH PAECs [10]): significant reduction; myocardial fibrosis (trichrome staining of right ventricle, gross histology) ([1]; MCT and SUGEN groups, MC1568): no evidence of myocardial fibrosis; muscularization of small arterioles [1, 15]: significantly decreased; right ventricle to left ventricle+septum weight ratios [1, 15]: significant reduction; right ventricular systolic pressures (RVSP) [1, 15]: significant decrease; PCNA-positive proliferating vascular cells ([1]; MCT and SUGEN models, lungs, MC1568 50 mg per kg intraperitoneal daily, vs. control groups): significantly fewer; cellular apoptosis as assessed by caspase 3 cleavage [11]: did not result in caspase activation; expression of Cx37, Cx40, and KLF2 [12]: significant increased expression; expression of FGF2 in the lungs (FGF2 [13]): significantly decreased

Question: Which “cellular apoptosis as assessed by caspase 3 cleavage” value [11] does the source give for `CC(/C=C/C(=O)NO)=C\[C@@H](C)C(=O)c1ccc(N(C)C)cc1` [TSA, trichostatin A] here?
Answer: marked induction of cellular apoptosis

Question: And the “effect on the right ventricle” value [4]?
Answer: detrimental injury to the right ventricle

Question: Which “PAH PAEC migration” value (PAH PAECs [6]) does the source give for `O=C(NCC1(c2nc(-c3ccccc3)cs2)CCOCC1)c1cccc(-c2noc(C(F)(F)F)n2)c1` [TMP269, N-((4-(4-phenylthiazol-2-yl)tetrahydro-2H-pyran-4-yl)methyl)-3-(5-(trifluoromethyl)-1,2,4-oxadiazol-3-yl)benzamide] here?
Answer: inhibited

Question: And the “degradation of HDAC5” value (HDAC5 [8])?
Answer: degradation

Question: And the “degradation of HDAC4” value (HDAC4 [9])?
Answer: degradation

Question: What about the “right ventricular hypertrophy (right ventricle to left ventricle plus septum weight ratios)” value [1, 16] of the same compound?
Answer: decreased

Question: What about the “right ventricular systolic pressures” value [1, 16] of the same compound?
Answer: significantly reduced

Question: What about the “expression of Cx37, Cx40, and KLF2” value [12] of the same compound?
Answer: significantly increased
